Source: US4172891A, “Cephalosporins” (Takeda Chemical Industries, Inc., priority 1976, dated 1979)
Converted amounts (≈) assume the structure as drawn. Like-named read-outs stand apart in the source and are kept apart here.

Legend:
P. morganii IFO 3168 = assay: Minimum Inhibitory Concentration, agar dilution, P. morganii IFO 3168; type: cell-based, Proteus morganii; details: Morganella morganii
From the text: (§1) […]. | Minimum Inhibitory Concentrations (mcg/ml, agar dilution)

E. coli NIHJ = assay: Minimum Inhibitory Concentration, agar dilution, E. coli NIHJ; type: cell-based; details: Escherichia coli, read-out: Minimum Inhibitory Concentration
From the text: as §1

E. coli O-111 = assay: Minimum Inhibitory Concentration, agar dilution, E. coli O-111; type: cell-based; details: Escherichia coli
From the text: (§2) Following each example is a tabulation of the minimal inhibitory concentrations (MIC) of the present compound [I] obtained in accordance with the particular example against several representative gram-negative bacteria and the corresponding concentrations of cephaloridine [7-(2-thienylacetamido)-3-(1-pyridyl)methyl-3-cephem-4-carboxylic acid betaine] and cefazolin [sodium 7-(1H-tetrazol-1-yl)acetamido-3-(2-methyl-1,3,4-thiadiazol-5-yl)thiomethyl-3-cephem-4-carboxylate], both of which are typical cephalosporins commercially available and clinically accepted nowadays [The New England Journal of Medicine 294, 24 (1976) and Journal of Pharmaceutical Science 64, 1899 (1975)]. There are also shown the effective doses of the typical compounds of this invention on the mice infected with Escherichia coli in comparison with that of cephaloridine.
Minimum Inhibitory Concentrations (mcg/ml, agar dilution)

K. pneumoniae GN 3835 = assay: Minimum Inhibitory Concentration, agar dilution, K. pneumoniae GN 3835; type: cell-based; details: Klebsiella pneumoniae
From the text: as §1

Cit. freundii GN 1706 = assay: Minimum Inhibitory Concentration, agar dilution, Cit. freundii GN 1706; type: cell-based; details: Citrobacter freundii
From the text: as §1

K. pneumoniae DT = assay: Minimum Inhibitory Concentration, agar dilution, K. pneumoniae DT; type: cell-based; details: Klebsiella pneumoniae, read-out: Minimum Inhibitory Concentration
From the text: as §1

Cit. freundii GN 99 = assay: Minimum Inhibitory Concentration, agar dilution, Cit. freundii GN 99; type: cell-based; details: Citrobacter freundii
From the text: as §1

P. mirabilis GN 4359 = assay: Minimum Inhibitory Concentration, agar dilution, P. mirabilis GN 4359; type: cell-based; details: Proteus mirabilis
From the text: as §1

E. coli T-7 = assay: Minimum Inhibitory Concentration, agar dilution, E. coli T-7; type: cell-based; details: Escherichia coli
From the text: as §1

P. rettgeri 8(TNO 336) = assay: Minimum Inhibitory Concentration, agar dilution, P. rettgeri 8(TNO 336); type: cell-based, Proteus rettgeri; details: Providencia rettgeri
From the text: as §1

P. vulgaris IFO 3988 = assay: Minimum Inhibitory Concentration, agar dilution, P. vulgaris IFO 3988; type: cell-based; details: Proteus vulgaris
From the text: as §1

P. rettgeri GN 4733 = assay: Minimum Inhibitory Concentration, agar dilution, P. rettgeri GN 4733; type: cell-based, Proteus rettgeri; details: Providencia rettgeri
From the text: as §1

Ent. cloacae IFO 12937 = assay: Minimum Inhibitory Concentration, agar dilution, Ent. cloacae IFO 12937; type: cell-based; details: Enterobacter cloacae
Escherichia coli O-111 = assay: Comparative protection test on infected mice; type: in vivo; details: O111, sc, 168 h; male ICR/SLC mice infected intraperitoneally with Escherichia coli O-111; single subcutaneous dose immediately after challenge; 7 days observation
From the text: as §2
Comparative protection tests of the compounds of this
invention and cephaloridine on infected mice
*Test animals: male mice (ICR/SLC) 5 mice per group per single dose
Infection: intraperitoneally with Escherichia coli O-111
Administration: a single subcutaneous dose immediately after challenge
Observation period: 7 days

[1] = IFO3168, P. morganii IFO 3168, agar dilution, read-out: Minimum Inhibitory Concentration
[2] = O111, E. coli O-111, agar dilution, read-out: Minimum Inhibitory Concentration
[3] = GN3835, K. pneumoniae GN 3835, agar dilution, read-out: Minimum Inhibitory Concentration
[4] = GN1706, Cit. freundii GN 1706, agar dilution, read-out: Minimum Inhibitory Concentration
[5] = K. pneumoniae DT, agar dilution
[6] = GN99, Cit. freundii GN 99, agar dilution, read-out: Minimum Inhibitory Concentration
[7] = GN4359, P. mirabilis GN 4359, agar dilution, read-out: Minimum Inhibitory Concentration
[8] = T7, E. coli T-7, agar dilution, read-out: Minimum Inhibitory Concentration
[9] = P. rettgeri 8(TNO 336), read-out: Minimum Inhibitory Concentration
[10] = IFO3988, P. vulgaris IFO 3988, agar dilution, read-out: Minimum Inhibitory Concentration
[11] = GN4733, P. rettgeri GN 4733, agar dilution, read-out: Minimum Inhibitory Concentration
[12] = IFO12937, Ent. cloacae IFO 12937, agar dilution, read-out: Minimum Inhibitory Concentration
[13] = IFO3168, read-out: Minimum Inhibitory Concentration
[14] = GN3835, read-out: Minimum Inhibitory Concentration
[15] = GN1706, read-out: Minimum Inhibitory Concentration
[16] = GN99, read-out: Minimum Inhibitory Concentration
[17] = GN4359, read-out: Minimum Inhibitory Concentration
[18] = T7, read-out: Minimum Inhibitory Concentration
[19] = read-out: Minimum Inhibitory Concentration, P. rettgeri 8(TNO 336)
[20] = IFO3988, read-out: Minimum Inhibitory Concentration
[21] = GN4733, read-out: Minimum Inhibitory Concentration
[22] = IFO12937, read-out: Minimum Inhibitory Concentration

SMILES | MIC (P. morganii IFO 3168; [1]) [mg/L] | MIC (E. coli NIHJ; E. coli NIHJ, agar dilution) [mg/L] | MIC (E. coli O-111; [2]) [mg/L] | MIC (K. pneumoniae GN 3835; [3]) [mg/L] | MIC (Cit. freundii GN 1706; [4]) [mg/L] | MIC (K. pneumoniae DT; [5]) [mg/L] | MIC (Cit. freundii GN 99; [6]) [mg/L] | MIC (P. mirabilis GN 4359; [7]) [mg/L] | MIC (E. coli T-7; [8]) [mg/L] | MIC (P. rettgeri 8(TNO 336); [9]) [mg/L] | MIC (P. vulgaris IFO 3988; [10]) [mg/L] | MIC (P. rettgeri GN 4733; [11]) [mg/L] | MIC (Ent. cloacae IFO 12937; [12]) [mg/L] | ED50 (Escherichia coli O-111) [mg/kg] | MIC (K. pneumoniae DT) [mg/L] | MIC (P. mirabilis GN 4359; [17]) [mg/L] | further results
Cn1nnnc1SCC1=C(C(=O)O)N2C(=O)C(NC(=O)Cc3csc(=N)n3O)C2SC1 (centres unmarked) [Example 5, sodium 7-[2-(2-imino-3-hydroxy-4-thiazolin-4-yl)acetamido]-3-(1-methyltetrazol-5-yl) thiomethyl-3-cephem-4-carboxylate] | 0.78 | 0.05 | ≤ 0.03 | 0.1 | 0.78 | 0.05 | 0.39 | 0.1 | 1.56 | ≤ 0.03 | 0.2 | 0.05 | 6.25 |  |  |  | 
Cn1nnnc1SCC1=C(C(=O)O)N2C(=O)C(NC(=O)Cc3csc(=N)n3O)[C@H]2SC1 (some centres unmarked) [Example 9, 7-[2-(2-imino-3-hydroxy-4-thiazolin-4-yl)acetamido]-3-(1-methyltetrazol-5-yl)thiomethyl-3-cephem-4-carboxylic acid] |  |  |  |  |  |  |  |  |  |  |  |  |  | 0.04 |  |  | 
N=c1scc(CC(=O)NC2C(=O)N3C(C(=O)O)=C(CSc4nnnn4CCO)CSC23)n1O (centres unmarked) [Example 17, sodium 7-[2-(2-imino-3-hydroxy-4-thiazolin-4-yl)acetamido]-3-[1-(2-hydroxyethyl)-1H-tetrazol-5-yl]thiomethyl-3-cephem-4-carboxylate] | 0.39 | 0.1 | 0.05 | 0.1 | 12.5 | 0.05 | 0.39 | 0.1 | 1.56 | ≤ 0.012 | 0.2 | 0.05 |  |  |  |  | 
Cc1nnc(SCC2=C(C(=O)O)N3C(=O)C(NC(=O)Cc4csc(=N)n4O)C3SC2)o1 (centres unmarked) [Example 6, sodium 7-[2-(2-imino-3-hydroxy-4-thiazolin-4-yl)acetamido]-3-(5-methyl-1,3,4-oxadiazol-2-yl) thiomethyl-3-cephem-4-carboxylate] | 0.1 | 0.1 | 0.05 | 0.78 | 1.56 | 0.1 | 0.78 | 0.1 | 3.13 | ≤ 0.012 | 0.2 | 0.1 | 50 | 0.071 |  |  | 
N=c1scc(CC(=O)NC2C(=O)N3C(C(=O)[O-])=C(COC(N)=O)CS[C@H]23)n1O.[Na+] (some centres unmarked) [Example 13, sodium 7-[2-(2-imino-3-hydroxy-4-thiazolin-4-yl)acetamido]-3-(carbamoyloxymethyl)-3-cephem-4-carboxylate] |  |  | 0.1 |  |  |  |  |  |  |  |  |  |  | 0.084 | 0.2 | 0.2 | MIC (P. morganii IFO 3168; [13]): 0.78 mg/L; MIC (E. coli NIHJ): 0.2 mg/L; MIC (K. pneumoniae GN 3835; [14]): 0.2 mg/L; MIC (Cit. freundii GN 1706; [15]): 3.13 mg/L; MIC (Cit. freundii GN 99; [16]): 0.78 mg/L; MIC (E. coli T-7; [18]): 1.56 mg/L; MIC (P. rettgeri 8(TNO 336); [19]): ≤ 0.012 mg/L; MIC (P. vulgaris IFO 3988; [20]): 0.39 mg/L; MIC (P. rettgeri GN 4733; [21]): 0.2 mg/L; MIC (Ent. cloacae IFO 12937; [22]): 50 mg/L
Cc1nnc(SCC2=C(C(=O)[O-])N3C(=O)C(NC(=O)Cn4cnnn4)[C@H]3SC2)s1.[Na+] (some centres unmarked) [Cefazolin, sodium 7-(1H-tetrazol-1-yl)acetamido-3-(2-methyl-1,3,4-thiadiazol-5-yl)thiomethyl-3-cephem-4-carboxylate, reference compound] |  |  | 1.56 |  |  |  |  |  |  |  |  |  |  |  | 1.56 | 3.13 | MIC (P. morganii IFO 3168; [13]): > 100 mg/L; MIC (E. coli NIHJ): 1.56 mg/L; MIC (K. pneumoniae GN 3835; [14]): 12.5 mg/L; MIC (Cit. freundii GN 1706; [15]): > 100 mg/L; MIC (Cit. freundii GN 99; [16]): 50 mg/L; MIC (E. coli T-7; [18]): > 100 mg/L; MIC (P. rettgeri 8(TNO 336); [19]): 0.2 mg/L; MIC (P. vulgaris IFO 3988; [20]): 3.13 mg/L; MIC (P. rettgeri GN 4733; [21]): > 100 mg/L
Cn1c(CO)nnc1SCC1=C(C(=O)[O-])N2C(=O)C(NC(=O)Cc3csc(=N)n3O)[C@H]2SC1.[Na+] (some centres unmarked) [Example 8, sodium 7-[2-(2-imino-3-hydroxy-4-thiazolin-4-yl)acetamido]-3-(3-hydroxymethyl-4-methyl-1,2,4-triazol-5-yl)thiomethyl-3-cephem-4-carboxylate] |  |  | ≤ 0.2 |  |  |  |  |  |  |  |  |  |  |  | ≤ 0.2 | ≤ 0.2 | MIC (P. morganii IFO 3168; [13]): ≤ 0.2 mg/L; MIC (E. coli NIHJ): ≤ 0.2 mg/L; MIC (K. pneumoniae GN 3835; [14]): ≤ 0.2 mg/L; MIC (Cit. freundii GN 1706; [15]): 3.13 mg/L; MIC (Cit. freundii GN 99; [16]): 0.78 mg/L; MIC (E. coli T-7; [18]): 1.56 mg/L; MIC (P. rettgeri 8(TNO 336); [19]): ≤ 0.2 mg/L; MIC (P. vulgaris IFO 3988; [20]): 0.39 mg/L; MIC (P. rettgeri GN 4733; [21]): ≤ 0.2 mg/L; MIC (Ent. cloacae IFO 12937; [22]): 12.5 mg/L
N=c1scc(CC(=O)NC2C(=O)N3C(C(=O)[O-])=C(C[n+]4ccc(C(N)=O)cc4)CSC23)n1O (centres unmarked) [Example 10, 7-[2-(2-imino-3-hydroxy-4-thiazolin-4-yl)acetamido]-3-(4-carbamoylpyridinium)methyl-3-cephem-4-carboxylic acid betain] | 3.13 (≈ 6.38 µM) | 1.56 (≈ 3.18 µM) | 0.39 (≈ 0.795 µM) | 1.56 (≈ 3.18 µM) | 12.5 (≈ 25.5 µM) | 0.78 (≈ 1.59 µM) | 1.56 (≈ 3.18 µM) | 0.78 (≈ 1.59 µM) | 25 (≈ 51 µM) | ≤ 0.2 | 0.78 (≈ 1.59 µM) | ≤ 0.2 | 25 (≈ 51 µM) | 0.089 |  |  | 
O=C(Cc1cccs1)N[C@@H]1C(=O)N2C(C(=O)[O-])=C(C[n+]3ccccc3)CS[C@H]12 [Cephaloridine, 7-(2-thienylacetamido)-3-(1-pyridyl)methyl-3-cephem-4-carboxylic acid betaine, reference compound] | > 100 | 6.25 (≈ 15 µM) | 3.13 (≈ 7.53 µM) | 50 (≈ 120 µM) | > 100 |  | 50 (≈ 120 µM) |  | > 100 | 1.56 (≈ 3.75 µM) | 6.25 (≈ 15 µM) | > 100 | > 100 | 2.6 | 3.13 (≈ 7.53 µM) | 3.13 (≈ 7.53 µM) | 
N=c1scc(CC(=O)NC2C(=O)N3C(C(=O)O)=C(CSc4c[nH]nn4)CSC23)n1O (centres unmarked) [Example 7, sodium 7-[2-(2-imino-3-hydroxy-4-thiazolin-4-yl)acetamido]-3-(1H-1,2,3-triazol-4-yl)thiomethyl-3-cephem-4-carboxylate] | 0.39 | 0.78 | 0.05 | 0.1 | 12.5 | 0.1 | 1.56 | 0.1 | 3.13 | ≤ 0.03 | 0.2 | 0.78 | > 100 | 0.056 |  |  | 
Cc1nsc(SCC2=C(C(=O)O)N3C(=O)C(NC(=O)Cc4csc(=N)n4O)C3SC2)n1 (centres unmarked) [Example 15, sodium 7-[2-(2-imino-3-hydroxy-4-thiazolin-4-yl)acetamido]-3-(3-methyl-1,2,4-thiadiazol-5-yl) thiomethyl-3-cephem-4-carboxylate] | 1.56 | 0.39 | 0.1 |  | 12.5 | 0.1 | 0.78 | 0.1 | 6.25 | ≤ 0.012 | 0.1 | 0.2 |  |  |  |  | 
N=c1scc(CC(=O)NC2C(=O)N3C(C(=O)O)=C(CSc4nnc(C(F)(F)F)s4)CSC23)n1O (centres unmarked) [Example 16, sodium 7-[2-(2-imino-3-hydroxy-4-thiazolin-4-yl)acetamido]-3-(2-trifluorometyl-1,3,4-thiadiazol-5-yl)thiomethyl-3-cephem-4-carboxylate] | 3.13 | 0.78 |  |  | 6.25 | 0.39 | 0.78 | 0.78 | 12.5 | ≤ 0.012 | 0.2 | 1.56 |  |  |  |  | MIC (E. coli O-111; O111, read-out: Minimum Inhibitory Concentration): 0.39 mg/L
